# Molecular target: tau (Homo sapiens, UniProt P10636)
# Assay: MCE Phenols Library screening, tau biosensor cell seeding assay (AvZ)
# Assay type: cell-based
# Settings: for Z repl 1 / Z Repl 2: Z score; for Z repl 1 / raw data 1: replicate 1; for Z Repl 2 / raw data 2: replicate 2; for AvZ (average z score of seeding, SDs from the mean level of seeding): 10 μM phenol in cell cultures, AD brain homogenate preincubated 16 hours, two biological replicates, positive = catalyzes seeding, negative = inhibits
# [1] = average Z score of the two replicates, tau seeding
# [2] = average Z score of the two replicates, MCE Phenols Library screen
# [3] = average puncta of the two replicates
# [4] = average Z score of two replicates, Phenols Library screen
# Chain of tau (P10636 623-695 limits assumed): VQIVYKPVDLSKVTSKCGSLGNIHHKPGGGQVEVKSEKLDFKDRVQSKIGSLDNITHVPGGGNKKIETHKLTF
Compound,Z repl 1,Z Repl 2,av puncta (average of raw data 1 and 2),raw data 1 (puncta),raw data 2 (puncta),av Z [1],av Z [2],av puncta [3],raw data 1 (raw puncta),raw data 2 (raw puncta),av Z [4],"av Z (average Z score of the two replicates, tau biosensor seeding, MCE Phenols Library screen)","AvZ (average z score of seeding, SDs from the mean level of seeding)"
Tubuloside A,0.218,0.274,22327.4,28967.6,15687.1,,,,,,,,
Cc1cc(=O)oc2cc(O)c(O)cc12 [4-Methylesculetin],0.302,-0.022,21252.2,29975.4,12529,0.14,,,,,,,
COc1cc(O)c2c(c1)O[C@H](c1ccccc1)CC2=O [Pinostrobin],-0.797,-0.047,,,,,-0.422,14520.5,16779.4,12261.6,,,
COc1ccc(CCC(=O)c2ccc(O)cc2)c(OC)c1 [Loureirin A],-0.527,0.435,18718.9,20023.7,17414.1,,,,,,-0.046,,
CC1OC(OCC2OC(Oc3c(-c4ccc(O)cc4)oc4cc(OC5OC(C)C(O)C(O)C5O)cc(O)c4c3=O)C(O)C(O)C2O)C(O)C(O)C1O (centres unmarked) [Robinin],0.02,-0.843,,,,,-0.411,15180.1,26593.3,3766.89,,,
COc1ccc(-c2oc3c(CCC(C)(C)O)c(O)cc(O)c3c(=O)c2O)cc1 [Wushanicaritin],-0.889,-0.335,,15671.6,9188.09,,-0.612,12429.8,,,,,
COc1cc2c(cc1O)-c1c(OC)c(O)cc3c1[C@H](C2)NCC3 [Laetanine],-0.508,-0.181,,,,,-0.344,15544.8,20251.6,10838.1,,,
COc1ccc(-c2cc(=O)c3c(O)c(OC)c(OC)cc3o2)cc1O [Eupatorin],0.938,0.779,29352.8,37615.7,21089.9,,,,,,,0.859,
Cc1c(O)c(C)c2c(c1O)C(=O)C[C@@H](c1ccc(O)cc1)O2 [Farrerol],-0.382,-0.766,,21763,4584.63,,-0.574,13173.8,,,,,
CC(C)=CCc1c(O)cc2oc3cc(O)c(O)c(CC=C(C)C)c3c(=O)c2c1O [Gamma-Mangostin],-0.442,-0.111,,,,,-0.277,16310.3,21043.4,11577.2,,,
OC[C@H]1O[C@@H](Oc2cc(/C=C/c3cc(O)cc(O)c3)ccc2O)[C@H](O)[C@@H](O)[C@@H]1O [Piceatannol 3'-O-glucoside],0.407,0.408,24178.5,31229.6,17127.3,0.407,,,,,,,
O=C(O)Cc1cc(I)c(Oc2cc(I)c(O)c(I)c2)c(I)c1 [Tetrac],0.158,-0.425,18236.7,28241.9,8231.59,,,,,,-0.133,,
COc1c(O)cc2oc(-c3ccccc3)cc(=O)c2c1O [Oroxylin A],-0.11,-0.323,,,,,-0.217,17171.6,25029.5,9313.67,,,
NCCCN(CCCCNCCCNC(=O)CCc1ccc(O)c(O)c1)C(=O)CCc1ccc(O)c(O)c1 [Kukoamine B],-1.263,-0.72,8130.71,11188.8,5072.6,,-0.992,,,,,,
CC(C)c1ccc2c(c1O)CC[C@H]1C3=C(CC[C@]21C)C(=O)OC3 [Triptophenolide],0.422,0.028,22243.1,31418,13068.1,0.225,,,,,,,
Oc1cc(O)c2c(c1)O[C@H](c1ccc(O)c(O)c1)[C@@H](O)C2 [Catechin],-0.542,-0.523,,19846.5,7181.16,,-0.532,13513.8,,,,,
O=c1c(O)c(-c2ccccc2)oc2cc(O)cc(O)c12 [Galangin],0.212,-0.203,19744.8,28893.6,10595.9,,,,,,0.004,,
Oc1cc(O)c2c(c1)O[C@H](c1ccc(O)c(O)c1)[C@@H](O)[C@H]2O [Leucocyanidin],-0.147,-0.356,,,,,-0.251,16774.6,24584.1,8965.07,,,
C[C@@H]1O[C@@H](OC[C@H]2O[C@@H](OCCc3ccc(O)c(O)c3)[C@H](O)[C@@H](O)[C@@H]2OC(=O)/C=C/c2ccc(O)c(O)c2)[C@H](O)[C@H](O)[C@H]1O [Forsythiaside A],0.23,-0.492,18310.1,29105.9,7514.37,,,,,,-0.131,,
O=c1c(O[C@@H]2O[C@H](CO)[C@@H](O)[C@H](O)[C@H]2O)c(-c2ccc(O)c(O)c2)oc2cc(O)cc(O)c12 [Isoquercetin],0.174,-0.844,,,,,-0.335,16096.8,28442.1,3751.47,,,
O=C(OCC1=C[C@@H](O)[C@@H]2C=CO[C@@H](O[C@@H]3O[C@H](CO)[C@@H](O)[C@H](O)[C@H]3O)[C@H]12)c1ccc(O)cc1 [Agnuside],-0.301,0.292,19312.6,22737.6,15887.6,,,,,,-0.004,,
COc1ccc2c(c1OC)O[C@H]1c3ccc(O)cc3OC[C@@H]21 [Methylnissolin],-0.257,-1.004,,23269.5,2047.37,,-0.63,12658.4,,,,,
O=C(O)CCc1cccc(O)c1 [3-(3-Hydroxyphenyl)propionic acid],1.121,1.553,34577.7,39805,29350.4,,,,,,,,1.337
Cc1cc(=O)c2c(O)cc(O)cc2o1 [Noreugenin],-0.363,-0.457,,,,,-0.41,14938,21994.8,7881.17,,,
O=C(O)c1cccc(O)c1 [3-Hydroxybenzoic acid],-0.749,-0.88,10365.4,17360.5,3370.33,,,,,,,,-0.814

# — article PMC11784839, “Monoaminergic neurotransmitters are bimodal effectors of tau aggregation” (Science Advances, 2025)
